This is an account of results in ChEMBL document CHEMBL4828717, “Synthetic cajaninstilbene acid derivatives eradicate methicillin-resistant Staphylococcus aureus persisters and biofilms” (Eur J Med Chem, 2021).

The MIC is the lowest concentration found to suppress growth.

The source made the active and inactive calls. No cut-off for these calls is given here. Some results are limits rather than exact numbers.

The subject of series [1] is Staphylococcus aureus. The series is described as follows: Antibacterial activity against methicillin resistant Staphylococcus aureus ATCC515992 assessed as reduction in microbial growth after 16 to 18 hrs by microbroth dilution method. Type of series: functional. Conditions: time 16-18 hrs. In general terms: Dilution methods test growth across graded concentrations, often in twofold steps.

The subject of series [2] is Staphylococcus aureus. Briefly: Antibacterial activity against methicillin resistant Staphylococcus aureus ATCC49008 assessed as reduction in microbial growth after 16 to 18 hrs by microbroth dilution method. Format: functional. Conditions: time 16-18 hrs.
The test system of series [3] is Staphylococcus aureus. The series is described as follows: Antibacterial activity against methicillin resistant Staphylococcus aureus ATCC48966 assessed as reduction in microbial growth after 16 to 18 hrs by microbroth dilution method. Conditions: time 16-18 hrs. Format: functional.
For series [4], the system named is Staphylococcus aureus. Briefly: Antibacterial activity against methicillin resistant Staphylococcus aureus ATCC 43300 assessed as reduction in microbial growth after 16 to 18 hrs by microbroth dilution method. Type of series: functional. Conditions: time 16-18 hrs.
Series [5] has as its system Staphylococcus aureus. The series is described as follows: Antibacterial activity against methicillin resistant Staphylococcus aureus ATCC49025 assessed as reduction in microbial growth after 16 to 18 hrs by microbroth dilution method. Type of series: functional. To be noted: time 16-18 hrs.
The subject of series [6] is Staphylococcus aureus. Briefly: Antibacterial activity against methicillin resistant Staphylococcus aureus ATCC513045 assessed as reduction in microbial growth after 16 to 18 hrs by microbroth dilution method. Type of series: functional. Conditions: time 16-18 hrs.
For the next series, the system named is L02. Briefly: Cytotoxicity against human L02 cells assessed as cell viability at 10 ug/ml measured after 24 hrs by MTT assay. To be noted: l02, 24 h, dose 10 µg/ml. Format: cell-based. A general note: Tetrazolium assays rely on reduction of a dye to a coloured formazan, in cell work by metabolically active cells.
Series [7] relates to Staphylococcus aureus. The series is described as follows: Antibacterial activity against methicillin resistant Staphylococcus aureus ATCC49800 assessed as reduction in microbial growth after 16 to 18 hrs by microbroth dilution method. Type of series: functional. To be noted: time 16-18 hrs.
Series [8] is described as follows: Cytotoxicity against mouse RAW264.7 cells assessed as cell viability at 10 ug/ml measured after 24 hrs by MTT assay. Type of series: cell-based. To be noted: RAW264.7 cells, at 10 µg/mL, read-out: Activity.
The next series deals with Enterococcus faecalis. Briefly: Antibacterial activity against Enterococcus faecalis ATCC29212 assessed as reduction in microbial growth after 16 to 18 hrs by microbroth dilution method. Format: functional. Conditions: ATCC 29212, time 16-18 hrs.
The subject of another series is Pseudomonas aeruginosa. Briefly: Antibacterial activity against Pseudomonas aeruginosa ATCC27853 assessed as reduction in microbial growth after 16 to 18 hrs by microbroth dilution method. Type of series: functional. To be noted: time 16-18 hrs.
For series [9], the system named is Staphylococcus aureus. The series is described as follows: Antibacterial activity against methicillin resistant Staphylococcus aureus ATCC 62202 assessed as reduction in microbial growth after 16 to 18 hrs by microbroth dilution method. Type of series: functional. Conditions: time 16-18 hrs.
The test system of series [10] is Staphylococcus aureus. Briefly: Antibacterial activity against Staphylococcus aureus ATCC 25923 assessed as reduction in microbial growth after 16 to 18 hrs by microbroth dilution method. Conditions: time 16-18 hrs. Format: functional.
The test system of series [11] is Staphylococcus aureus. Briefly: Antibacterial activity against methicillin resistant Staphylococcus aureus ATCC48706 assessed as reduction in microbial growth after 16 to 18 hrs by microbroth dilution method. Type of series: functional. To be noted: time 16-18 hrs.
Another series deals with Escherichia coli. The series is described as follows: Antibacterial activity against Escherichia coli ATCC25922 assessed as reduction in microbial growth after 16 to 18 hrs by microbroth dilution method. Type of series: functional. To be noted: ATCC 25922, time 16-18 hrs.
Series [12] relates to Staphylococcus aureus. The series is described as follows: Antibacterial activity against methicillin resistant Staphylococcus aureus ATCC 52056 assessed as reduction in microbial growth after 16 to 18 hrs by microbroth dilution method. Format: functional. Conditions: time 16-18 hrs.
Series [13] concerns Staphylococcus aureus. The series is described as follows: Antibacterial activity against methicillin resistant Staphylococcus aureus ATCC48073 assessed as reduction in microbial growth after 16 to 18 hrs by microbroth dilution method. Format: functional. To be noted: time 16-18 hrs.
The nature of series [14]: Toxicity in BALB/c mouse infected with methicillin-resistant Staphylococcus aureus ATCC 43300 assessed as damage in lung at 50 to 100 mg/kg, sc administered every 24 hrs for 4 days by H&E staining based light microscopic analysis. Format: organism-based. Conditions: in vivo, dose 50-100 mg/kg.
Series [15] can be described thus: Toxicity in BALB/c mouse infected with methicillin-resistant Staphylococcus aureus ATCC 43300 assessed as damage in heart at 50 to 100 mg/kg, sc administered every 24 hrs for 4 days by H&E staining based light microscopic analysis. Conditions: in vivo, dose 50-100 mg/kg. Format: organism-based.
The nature of series [16]: Toxicity in BALB/c mouse infected with methicillin-resistant Staphylococcus aureus ATCC 43300 assessed as damage in spleen at 50 to 100 mg/kg, sc administered every 24 hrs for 4 days by H&E staining based light microscopic analysis. Type of series: organism-based. Conditions: in vivo, dose 50-100 mg/kg.
The nature of series [17]: Toxicity in BALB/c mouse infected with methicillin-resistant Staphylococcus aureus ATCC 43300 assessed as damage in kidney at 50 to 100 mg/kg, sc administered every 24 hrs for 4 days by H&E staining based light microscopic analysis. Type of series: organism-based. Conditions: in vivo, dose 50-100 mg/kg.
A short description of series [18]: Toxicity in BALB/c mouse infected with methicillin-resistant Staphylococcus aureus ATCC 43300 assessed as damage in liver at 50 to 100 mg/kg, sc administered every 24 hrs for 4 days by H&E staining based light microscopic analysis. Format: organism-based. Conditions: in vivo, dose 50-100 mg/kg.
Series [19] deals with Staphylococcus aureus. Briefly: Antibacterial activity against methicillin resistant Staphylococcus aureus ATCC 43300 persisters assessed as reduction in colony formation at 40 ug/ml incubated for 8 hrs by colony counting method. Format: functional, organism-based. Conditions: dose 40.0 µg/ml.

Turning to `CC(C)=CCc1c(OC2CCOCC2)cc(/C=C/c2ccc(F)cc2)c(C(=O)O)c1O`, the MIC is 32 µg/mL with Staphylococcus aureus [1]; 16 µg/mL in the series with Staphylococcus aureus [2]; 16 µg/mL with Staphylococcus aureus [3]; 1 µg/mL in the series with Staphylococcus aureus [4]; 16 µg/mL in the series with Staphylococcus aureus [5]; 16 µg/mL in the series on Staphylococcus aureus [6]. The minimum inhibitory concentration (MIC) is 16 µg/mL in the series with Staphylococcus aureus [7]; greater than 32 µg/mL in the series on Enterococcus faecalis; greater than 32 µg/mL in the series on Pseudomonas aeruginosa; 32 µg/mL in the series on Staphylococcus aureus [9]; 16 µg/mL in the series on Staphylococcus aureus [10]; 16 µg/mL with Staphylococcus aureus [11]. Also, the minimal inhibitory concentration (MIC) in the series on Escherichia coli is greater than 32 µg/mL; in the series with Staphylococcus aureus [12] it was 8 µg/mL; with Staphylococcus aureus [13], 16 µg/mL. Further, the Activity result with L02 was “Toxic”. Moreover, the viability at 24 h, 10 ug/ml in [8] was greater than 60%.

Take `CN[C@H](CC(C)C)C(=O)N[C@H]1C(=O)N[C@@H](CC(N)=O)C(=O)N[C@H]2C(=O)N[C@H]3C(=O)N[C@H](C(=O)N[C@H](C(=O)O)c4cc(O)cc(O)c4-c4cc3ccc4O)[C@H](O)c3ccc(c(Cl)c3)Oc3cc2cc(c3O[C@@H]2O[C@H](CO)[C@@H](O)[C@H](O)[C@H]2O[C@H]2C[C@](C)(N)[C@H](O)[C@H](C)O2)Oc2ccc(cc2Cl)[C@H]1O` [VANCOMYCIN]: the Activity entry in series [14], in [15], in series [16], in series [17] and in [18] was “Non-Toxic” in each case.

On to `CCCCCCCCCC(=O)N[C@@H](Cc1c[nH]c2ccccc12)C(=O)N[C@H](CC(N)=O)C(=O)N[C@@H](CC(=O)O)C(=O)N[C@@H]1C(=O)NCC(=O)N[C@@H](CCCN)C(=O)N[C@@H](CC(=O)O)C(=O)N[C@H](C)C(=O)N[C@@H](CC(=O)O)C(=O)NCC(=O)N[C@H](CO)C(=O)N[C@@H]([C@H](C)CC(=O)O)C(=O)N[C@@H](CC(=O)c2ccccc2N)C(=O)O[C@@H]1C`, for which, in the series with Staphylococcus aureus [19], the result was inactive.

`CO[C@H]1/C=C/O[C@@]2(C)Oc3c(C)c(O)c4c(O)c(c(/C=N/N5CCN(C)CC5)c(O)c4c3C2=O)NC(=O)/C(C)=C\C=C\[C@H](C)[C@H](O)[C@@H](C)[C@@H](O)[C@@H](C)[C@H](OC(C)=O)[C@@H]1C`: in the series on Staphylococcus aureus [19], the result was inactive.
